# According to patent publication US20260028352A1, “MACROCYCLIC IMIDAZO [1,2-B] PYRIDAZINE DERIVATIVE, PREPARATION METHOD THEREFOR, AND USE THEREOF” (SUZHOU LANGRUI BIOPHARMACEUTICAL CO., LTD., priority 2022, published 2026):
# How the values were obtained:
# [1] = test system: Ba/F3-TPM3-NTRK1-G667C cells; experiment: Growth inhibition of Ba/F3-TPM3-NTRK1-G667C cells (Cell Titer-Glo); format: cell-based; conditions: 72 hours, CTG; read-out: inhibitory activity IC50 Ba/F3-TPM3-NTRK1-G667C
# Summary of the method: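 Ba/F3 cells were exposed for 72 hours to serially DMSO-diluted compound at a top final concentration of 10 μM. Viability was read by Cell Titer-Glo luminescence after the plate equilibrated 30 min at room temperature and was then shaken 1 hour in the dark at room temperature.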
# TRKA^F589L kinase = TRKA^F589L kinase (Homo sapiens (Human), UniProt P04629, F589L); experiment: Inhibitory activity against TRKA(F589L) kinase (Caliper mobility shift); format: biochemical; conditions: in vitro kinase assay
# Procedure: Kinase Assay Process: 1× Kinase buffer was prepared. […] The compounds were serially diluted into 10 concentrations ([…], 0.15, and 0.05 nM) using a Precision 3-fold dilution method. By using the Echo550 liquid handler, 250 nL of the 100-fold final concentration compound was transferred to an OptiPlate-384F plate. a 2.5× final concentration kinase solution was prepared using 1× Kinase buffer. 10 μL of the 2.5× final concentration kinase solution was added to the compound wells and the positive control wells, and 10 μL of 1× Kinase buffer was added to the negative control wells. The plate was centrifuged at 1000 rpm for 30 seconds, vortexed for mixing, and then incubated at room temperature for 10 minutes. A mixture of 5/3× final concentration of ATP and Kinase Substrate 22 was prepared using 1× Kinase buffer. 15 μL of the mixture of the 5/3× final concentration ATP and the substrate was added to initiate the reaction, the 384-well plate was centrifuged at 1000 rpm for 30 seconds, vortexed for mixing, and incubated at room temperature for the required time. 30 μL of the termination solution was added to stop the kinase reaction, the plate was centrifuged at 1000 rpm for 30 seconds, and vortexed for mixing. The conversion rate was measured using the Caliper EZ Reader.
# Data Analysis: the inhibition rate was calculated as follows:
# % Inhibition=(Conversion %_max−conversion %_sample)÷(Conversion %_max−conversion %_min)×100
# Conversion %_sample is the conversion rate reading for the sample; Conversion %_min is the average value of the negative control wells, representing the conversion rate for wells without enzyme activity: Conversion %_max is the average value of the positive control wells, representing the conversion rate for wells without compound inhibition. A dose-response curve was fitted using the log concentration of the compound as the X-axis and the percentage inhibition as the Y-axis. The log(inhibitor) vs. response-variable slope of the GraphPad Prism 5 software was used to fit the dose-response curve, and the IC50 value for each compound was obtained. The calculation formula is:
# Y=Bottom+(Top−Bottom)/(1+10^((Log IC50−X)*HillSlope)).
# wherein X represents the concentration of the compound to be tested; Y represents the inhibition rate at the concentration X: Top refers to the maximum response: Bottom refers to the baseline response; HillSlope refers to the slope of the curve (i.e., the gradient).
# TRKA^WT kinase = TRKA^WT kinase (Homo sapiens (Human), UniProt P04629); experiment: Inhibitory activity against TRKA WT kinase (Caliper mobility shift); format: biochemical; conditions: in vitro kinase assay
# Summary of the method: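 Kinase preincubated 10 min at room temperature with compound (10-point 3-fold series from 1000 nM), then reaction started with ATP and Kinase Substrate 22. Substrate conversion read by Caliper mobility shift; IC50 from variable-slope log(inhibitor)–response fit of % inhibition versus no-enzyme and no-compound controls.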
# [2] = test system: Ba/F3-TPM3-NTRK1-WT cells; experiment: Growth inhibition of Ba/F3-TPM3-NTRK1-WT cells (Cell Titer-Glo); format: cell-based; conditions: 72 hours, CTG; read-out: inhibitory activity IC50 Ba/F3-TPM3-NTRK1-WT
# Procedure: (§1) Then the solutions were subjected to a gradient dilution with DMSO: a clean, sterile V-bottom 96-well microplate was placed in the biological safety cabinet. First, 4 μL of DMSO was added to well B2 and 10 μL of DMSO was added to wells B3-B11 respectively; Next, 6 μL of the 10 mM solution was added to well B2. The microplate was pipetted up and down 10 times for mixing. […] Mixing was performed by pipetting up and down 10 times. The solution was diluted in order until well B10. only DMSO was added to well B11 (no compound).
# (§2) 6× Compound Solution Preparation (6-fold dilution, × represents dilution factor): (Initial final concentration: 10 μM), a clean, sterile V-bottom 96-well microplate was placed in the biological safety cabinet. 99 μL of cell culture medium was added to each well from B2 to G11. By using a 12-channel pipettor, 1 μL of the compound solution prepared in the previous step was added into the corresponding wells. The solutions were pipetted up and down 10 times to mix the solutions. The highest concentration of compound in this step was 60 μM.
# (§3) Treatment of Cells: the above-prepared cell culture plate was taken out of the incubator. 20 μL of compound solution from each well was added to the corresponding cell culture wells. The lowest pipetting speed was used and touching the bottom of the plate was avoided. The culture plate was gently shaked to mix the compound solution, then the plate was returned to the incubator for further culture for 72 hours.
# (§4) The highest treatment concentration of the compound was 10 μM. After 72 hours of treatment, the Cell Titer-Glo (CTG) assay was performed. First, the cell culture plate was removed from the CO2 incubator and allowed to stand at room temperature for 30 minutes to ensure uniform temperature of the plate. The pre-prepared Cell Titer-Glo reagent (following the manufacturer's instructions) was taken and allowed to stand at room temperature to thaw. 60 μL of Cell Titer-Glo reagent was added to each well containing cells. The cells were incubated on a horizontal shaker in a dark place at 225 rpm for 1 hour at room temperature. Then, a Tecan Spark microplate reader was used to read the plate using chemiluminescence according to the manufacturer's instructions.
# [3] = test system: Ba/F3-TPM3-NTRK1-G595R cells; experiment: Growth inhibition of Ba/F3-TPM3-NTRK1-G595R cells (Cell Titer-Glo); format: cell-based; conditions: 72 hours, CTG; read-out: inhibitory activity IC50 Ba/F3-TPM3-NTRK1-G595R
# Procedure: as §1, §2, §3, §4
# Sequence of TRKA^WT kinase (P04629 33-796): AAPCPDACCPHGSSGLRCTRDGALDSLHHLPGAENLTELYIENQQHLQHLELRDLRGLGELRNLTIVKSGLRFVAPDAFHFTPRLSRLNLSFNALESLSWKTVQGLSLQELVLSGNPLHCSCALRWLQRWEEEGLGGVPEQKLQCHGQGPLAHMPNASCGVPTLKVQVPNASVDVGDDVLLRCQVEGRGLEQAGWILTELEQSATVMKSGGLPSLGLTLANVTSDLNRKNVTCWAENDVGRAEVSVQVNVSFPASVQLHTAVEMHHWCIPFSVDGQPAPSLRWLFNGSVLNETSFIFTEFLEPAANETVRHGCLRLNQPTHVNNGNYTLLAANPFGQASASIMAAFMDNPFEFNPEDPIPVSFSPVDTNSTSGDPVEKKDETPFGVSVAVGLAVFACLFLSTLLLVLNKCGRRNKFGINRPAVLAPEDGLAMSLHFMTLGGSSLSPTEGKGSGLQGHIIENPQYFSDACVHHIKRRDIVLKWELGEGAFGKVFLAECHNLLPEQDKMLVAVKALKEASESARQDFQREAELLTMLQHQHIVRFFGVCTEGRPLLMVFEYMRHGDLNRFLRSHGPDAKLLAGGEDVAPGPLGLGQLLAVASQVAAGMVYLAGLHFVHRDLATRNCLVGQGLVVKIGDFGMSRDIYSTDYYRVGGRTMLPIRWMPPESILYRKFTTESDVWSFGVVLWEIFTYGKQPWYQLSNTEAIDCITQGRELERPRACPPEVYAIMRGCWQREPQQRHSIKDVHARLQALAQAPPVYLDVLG
# Sequence of TRKA^F589L kinase (P04629 33-796 F589L): as the sequence (P04629 33-796) above, with F557L counted along it
Compound,IC50 [1] [nM],IC50 (TRKA^F589L kinase) [nM],IC50 (TRKA^WT kinase) [nM],IC50 [2] [nM],IC50 [3] [nM]
"Fc1ccc2c(c1)[C@H]1CCCN1c1ccc3ncc(n3n1)-c1cc(ncn1)CCO2 [Example I-69, (3^2R,E)-4^5-fluoro-5-oxa-2(3,6)-imidazo[1,2-b]pyridazina-1(4,6)-pyrimidina-3(1,2)-pyrrolidina-4(1,2)-benzenacycloheptaphane]",< 100,< 5,< 3,,
"Fc1cnc2c(c1)[C@H]1C[C@H](F)CN1c1ccc3ncc(n3n1)-c1nccc(n1)CCO2 [Example I-88, (3^2R,3^4S,E)-3^4,4^5-difluoro-5-oxa-2(3,6)-imidazo[1,2-b]pyridazina-1(2,4)-pyrimidina-4(3,2)-pyridina-3(1,2)-pyrrolidinacycloheptaphane]",10.1,< 5,< 3,0.12,1.7
"(R)-(E)-4-methyl-6-oxa-3-aza-2(3,6)-imidazo[1,2-b]pyridazina-1(4,6)-pyrimidina-5(1,2)-benzenacyclooctaphane [Example I-32]",< 100,< 5,< 3,,

# Next, values leading:
IC50 [1] [nM],IC50 (TRKA^F589L kinase) [nM],IC50 (TRKA^WT kinase) [nM],IC50 [2] [nM],IC50 [3] [nM],Compound
< 100,< 5,< 3,,,"C[C@H]1Nc2ccc3ncc(n3n2)-c2cc(cnn2)CCOc2ncc(F)cc21 [Example I-89, (4R,E)-5^5-fluoro-4-methyl-6-oxa-3-aza-2(3,6)-imidazo[1,2-b]pyridazina-1(3,5)-pyridazina-5(3,2)-pyridinacyclooctaphane]"
< 100,< 5,< 3,,,"C[C@H]1Cc2ccnc(n2)-c2cnc3ccc(nn23)N2CCC[C@@H]2c2cc(F)cnc2O1 [Example I-95, (32R,6S,E)-4-fluoro-6-methyl-5-oxa-2(3,6)-imidazo[1,2-b]pyridazina-1(2,4)-pyrimidina-4(3,2)-pyridina-3(1,2)-pyrrolidinacycloheptaphane]"
< 100,< 5,< 3,,,"C[C@@H]1Cc2cc(ncn2)-c2cnc3ccc(nn23)N2CCC[C@@H]2c2cc(F)ccc2O1 [Example I-97, (3^2R,6R,E)-4^5-fluoro-6-methyl-5-oxa-2(3,6)-imidazo[1,2-b]pyridazina-1(4,6)-pyrimidina-3(1,2)-pyrrolidina-4(1,2)-benzenacycloheptaphane]"
16.3,< 5,< 3,0.22,1.5,"C[C@@H]1Cc2cc(ncn2)-c2cnc3ccc(nn23)N2C[C@@H](F)C[C@@H]2c2cc(F)ccc2O1 [Example I-98, (3^2R,3^4S,6R,E)-3^4,4^5-difluoro-6-methyl-5-oxa-2(3,6)-imidazo[1,2-b]pyridazina-1(4,6)-pyrimidina-3(1,2)-pyrrolidina-4(1,2)-benzenacycloheptaphane]"
